Results from patent publication US11661398B2, “Cellular transport system for transferring a sulfonic acid construct carrying a cargo into the cytoplasm of a cell” (Scientist of Fortune, S.A., priority 2017, dated 2023).
Entries after “also recorded” stand apart in the source; their conditions may differ. Structures can show the parent of a compound that is named as a salt.

Tests used:
BW25113 ΔleuB (TK080) = assay: Growth on different sulfur sources; format: cell-based, E. coli; details: 1 mM sulfur source, minimal medium, 0.5% glucose, 0.4 mM leucine
Protocol: FIG. 21: Growth of E. coli on sulfonates. Strains TK080 (a; BW25113 ΔleuB) and TK082 (b; BW25113 ΔleuB ΔssuEADCB ΔtauD) were grown in MS minimal medium supplemented with 0.5% glucose, 0.4 mM L-leucine, 1 mM MgCl2 and 1 mM of a sulfur source. TK080 was able to use the majority of the tested sulfur sources with a similar efficiency as sulfate. […] Dots represent the average of three independent measurements with standard deviations shown as error bars.
For the experiments relating to the sulfonate based synthetic transport system, unless stated otherwise, growth experiments in selective medium were carried out in sulfur free MS minimal medium (4 mM citric acid, 1 mM MgCl2, 20 mM NH4Cl, 50 mM KH2PO4 and 1×NTA mix (10 μM nitrilotriacetic acid, 3 μM CaCl2, 3 μM FeCl3, 1 μM MnCl2, 0.3 μM ZnCl2, 0.3 μM H3B3, 0.3 μM CrC3, 0.3 μM COCl2, 0.3 μM CuCl2, 0.3 μM Ni2C, 0.3 μM Na2MoO4, 0.3 μM Na2SeO3)) supplemented with 0.5% glucose. MgSO4 (1 mM), MgCl2 (1 mM), L-leucine (0.4 mM), IPTG (0.5 mM), aTc (100 ng mL-1), nicotinic acid (various concentrations), 3-picolylamine (various concentrations) and sulfonates (various concentrations) as indicated in the text. […] Synthesis schemes for sulfobutanoyl-p-nitroanilide and other sulfonates are given below.
The sulfonate transporters SsuABC and TauABC transport a wide variety of sulfonate compounds (Eichhorn et al., 2000) and can thus be exploited for the present synthetic transport system. As such, the uptake and utilization of sulfobutanoyl-L-leucine was assessed. The leucine auxotrophic strain BW25113 ΔleuB was tested for growth in minimal medium supplemented with 0.5% glucose, 0.4 mM leucine, 0.4 mM isoleucine and 1 mM of a sulfur-containing compound as the sole sulfur source.

PnGGT ΔN24 D405N = biological target: T1, PnGGT ΔN24 D405N (Pseudomonas nitroreducens, UniProt E0D5C2, D405N); assay: Kinetic measurements with purified PnGGT ΔN24 D405N; format: biochemical; details: purified enzyme, 50 mM Tris-HCl (pH 9.0)
T1 sequence (E0D5C2 with tags, fused parts or gaps D405N): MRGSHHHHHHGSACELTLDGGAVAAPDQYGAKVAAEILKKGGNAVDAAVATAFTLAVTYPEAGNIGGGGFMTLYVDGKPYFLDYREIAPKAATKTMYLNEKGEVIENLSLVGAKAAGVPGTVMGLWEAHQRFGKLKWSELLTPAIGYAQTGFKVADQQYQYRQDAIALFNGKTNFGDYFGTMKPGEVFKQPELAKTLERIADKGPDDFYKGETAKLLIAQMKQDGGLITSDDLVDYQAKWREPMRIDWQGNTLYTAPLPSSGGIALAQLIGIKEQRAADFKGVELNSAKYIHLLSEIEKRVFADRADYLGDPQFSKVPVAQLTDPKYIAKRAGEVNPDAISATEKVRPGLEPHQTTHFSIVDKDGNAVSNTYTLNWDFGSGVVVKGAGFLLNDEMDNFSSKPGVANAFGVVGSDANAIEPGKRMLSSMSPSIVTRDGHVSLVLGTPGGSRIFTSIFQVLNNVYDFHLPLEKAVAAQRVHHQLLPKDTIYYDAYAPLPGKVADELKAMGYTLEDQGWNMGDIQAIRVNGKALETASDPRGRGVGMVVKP
Protocol: For the experiments relating to the sulfonate based synthetic transport system, purification of PnGGT ΔN24 and PnGGT ΔN24 D405N containing an N-terminal 6×His-tag was performed according to previous reports (Van Dyke et al., 1992) using Ni-NTA Superflow (Qiagen, Hilden, Germany). For kinetic studies, PnGGT variants were purified with the aid of the 6×His-tag located at the N-terminal end of the large subunit following the same procedure. To exchange the buffer, purified proteins were dialyzed against 50 mM Tris/HCl (pH 7.0).
To determine the kinetic parameters of PnGGT ΔN24 and PnGGT ΔN24 D405N the purified enzymes were preincubated in 50 mM Tris-HCl (pH 9.0). To start the reaction, varying concentrations of the substrates L-glutamic acid γ-(3-carboxy-4-nitroanilide) or sulfobutanoyl-p-nitroanilide were added to the mixtures. The results were evaluated using GraphPad Prism (GraphPad Software, La Jolla, Calif., USA).

PnGGT* D385Y = assay: GGT* activity assay with cell free extracts of PnGGT* mutant variants; format: biochemical, Pseudomonas nitroreducens; details: 2 mM substrate
Protocol: (§1) FIG. 29. Expression analysis of selected PnGGT* mutant variants. Strain TK018 was transformed with the empty vector pACT3, the parent plasmid pPnGGT* or selected mutant variants thereof and grown in LB medium to early exponential phase. Synthesis of the PnGGT* variants was induced for 4 hours by adding 0.5 mM IPTG to the culture. (a) GGT* activity assays with cell free extracts and 2 mM of the substrate sulfobutanoyl-p-nitroanilide. […] Bars represent the average of three independent measurements with standard deviations shown as error bars. (b) SDS-PAGE of cell free extracts to confirm loading of similar protein amounts. (c) Western Blot of cell free extracts with an antibody directed against the large subunit of PnGGT* (38.5 kDa). Mutant variants Y167V Q168P and Y167H Q168G were synthesized slightly less efficiently than PnGGT*. All other mutant variants were synthesized with similar efficiency as PnGGT*.

PnGGT* P505T = assay: as above; format: biochemical, Pseudomonas nitroreducens; details: 2 mM substrate, sodium salt
Protocol: as §1

**Q.** Which “growth with compound as sole sulfur source” value (BW25113 ΔleuB (TK080)) does the source give for `O=C(CCCS(=O)(=O)O)Nc1ccc([N+](=O)[O-])cc1` [sodium salt] here?
**A.** Its value is “comparable to growth on other sulfonates”.

**Q.** What about the Km (PnGGT ΔN24 D405N) of the same compound?
**A.** Its Km is 767 µM.

**Q.** What about the Vmax (PnGGT ΔN24 D405N) of the same compound?
**A.** Its Vmax is 10.35 ± 0.28 µmol/min/mg.

**Q.** What about the kcat (PnGGT ΔN24 D405N) of the same compound?
**A.** Its kcat is 10.2 s⁻¹.

**Q.** What about the activity towards substrate (PnGGT* D385Y) of the same compound?
**A.** The activity towards substrate was “low activity”.

**Q.** And the “activity towards substrate compared to PnGGT*” value (PnGGT* P505T)?
**A.** Its value is “elevated activity; also recorded: slightly elevated in vitro activity”.
